Key:
5-HT1D = biological target: T1, 5-HT1D (Homo sapiens, UniProt P28221); test: Radioligand binding assay, 5-HT1D
T1 construct: expressed in transfected cells
Protocol: (§1) [^3H] […] The reactions are incubated at room temperature for 3 hr. and then counted in a Trilux Microbeta™ scintillation counter to detect receptor-bound radioligand. Binding data are analyzed by computer-assisted 4 parameter fit analysis (ID Business Solutions Ltd, Guildford, Surrey, UK). […]
(§2) Affinity for other serotonin receptor subtypes as well as for alpha 1 & 2 adrenergic receptors can readily be determined by modification of the above described radioligand receptor binding assay using membranes derived from cells stably expressing the desired receptor subtype including the 5-HT1A, 5-HT1B, and 5-HT1D subtypes, as well as the 5-HT2A, 5-HT2B, 5-HT2C, 5-HT4, 5-HT7, and 5-HT6 receptor subtypes. […]

5-HT2C = biological target: T2, 5-HT2C (Homo sapiens, UniProt P28335); test: Radioligand binding assay, 5-HT2C
T2 construct: expressed in transfected cells
T2 sequence (P28335 33-458): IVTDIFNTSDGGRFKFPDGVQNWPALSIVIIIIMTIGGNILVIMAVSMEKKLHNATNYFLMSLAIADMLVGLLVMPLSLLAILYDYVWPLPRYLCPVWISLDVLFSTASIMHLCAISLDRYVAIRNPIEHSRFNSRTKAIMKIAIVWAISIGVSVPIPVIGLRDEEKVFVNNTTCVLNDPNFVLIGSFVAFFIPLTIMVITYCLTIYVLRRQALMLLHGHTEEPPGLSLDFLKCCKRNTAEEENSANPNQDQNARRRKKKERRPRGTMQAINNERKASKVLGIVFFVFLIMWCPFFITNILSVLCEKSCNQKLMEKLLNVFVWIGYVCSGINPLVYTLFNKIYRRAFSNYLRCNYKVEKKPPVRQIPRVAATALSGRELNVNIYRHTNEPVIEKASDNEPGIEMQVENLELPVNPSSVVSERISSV
Protocol: as §1, §2

5-HT7 receptor = biological target: T3, 5-HT7 receptor (Homo sapiens, UniProt P34969); test: Functional antagonist assay: measurement of cAMP formation; assay type: cell-based
T3 construct: expressed in transfected cells
Protocol: For cAMP functional assays, the 5-HT7-expressing cells from above are grown in 150 cm^2 flasks and processed essentially as follows. The media is aspirated from the flasks and cells are washed with 1 mL PBS. The cells are released from the flask surface using enzyme free cell dissociation solution (Specialty media (www.chemicon.com) CAT#S-004-B) and resuspended in complete media. A sample of the cells is counted and the remainder is centrifuged as above for 3 min. The resulting cell pellet is resuspended in PBS at a concentration of 1×10^6 cells per mL and used directly in the cAMP assay as described.
The 5-HT7 receptor is functionally coupled to a G-protein as measured by the ability of serotonin and serotonergic drugs to stimulate cAMP production in CHO cells transfected with the 5-HT7 receptor. (Ruat, et al., Proceedings of the National Academy of Sciences (USA), 90:8547-8551, 1993.) Accordingly, functional receptor activity can be measured by measuring adenylate cyclase activity using a commercially available cell-based, homogeneous, time resolved fluorescence assay kit, as for example the kit produced by Cisbio-US, Inc. (Bedford, Mass.). Essentially, and using the protocol and reagents provided by the manufacturer, approximately 20,000 human 5-HT7 receptor-expressing AV-12 cells (as described above) are used with test compound dose concentrations in the range described for the binding assay. […] A cAMP standard curve is also run in every experiment. After the assay plates are read in an Envision™ instrument (Perkin-Elmer, Wellesley Mass.), the data are normalized to the standard curve and converted to percent inhibition for data analysis as described above for the receptor binding assay results. The Kb (nM) is calculated as a measure of the antagonist potency of the compound. Preferred compounds are those having percent inhibition >75%. Still other preferred compounds are those having Kb<50 nM.

T3 sequence (P34969 whole entry): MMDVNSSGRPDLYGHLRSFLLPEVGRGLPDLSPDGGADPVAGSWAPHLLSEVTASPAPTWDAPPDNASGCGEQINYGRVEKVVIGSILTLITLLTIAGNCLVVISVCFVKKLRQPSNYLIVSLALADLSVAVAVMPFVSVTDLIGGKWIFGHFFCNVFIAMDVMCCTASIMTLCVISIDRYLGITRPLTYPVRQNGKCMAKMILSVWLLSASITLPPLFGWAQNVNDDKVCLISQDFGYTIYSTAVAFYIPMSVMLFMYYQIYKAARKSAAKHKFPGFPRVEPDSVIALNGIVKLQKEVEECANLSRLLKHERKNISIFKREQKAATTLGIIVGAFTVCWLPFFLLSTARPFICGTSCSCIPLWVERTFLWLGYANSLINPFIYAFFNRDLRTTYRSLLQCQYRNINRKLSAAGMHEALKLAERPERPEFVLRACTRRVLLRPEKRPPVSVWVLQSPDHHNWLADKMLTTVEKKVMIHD
T1 sequence (P28221 whole entry, species assumed): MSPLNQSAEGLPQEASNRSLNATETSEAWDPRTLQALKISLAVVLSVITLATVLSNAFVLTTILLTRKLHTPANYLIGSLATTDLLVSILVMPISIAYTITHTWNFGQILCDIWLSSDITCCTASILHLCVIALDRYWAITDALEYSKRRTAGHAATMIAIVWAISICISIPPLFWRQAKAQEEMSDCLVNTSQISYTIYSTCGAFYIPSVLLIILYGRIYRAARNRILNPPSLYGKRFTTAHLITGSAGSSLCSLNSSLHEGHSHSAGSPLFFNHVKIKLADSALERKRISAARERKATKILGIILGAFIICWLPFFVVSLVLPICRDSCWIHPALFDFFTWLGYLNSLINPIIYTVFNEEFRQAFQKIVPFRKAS

Q: What does the source list for `CCn1ncc(CN2CCN(c3cccnc3N3CCC(O)CC3)CC2)c1C.Cl` [Example 1, 3′-[4-(1-Ethyl-5-methyl-1H-pyrazol-4-ylmethyl)-piperazin-1-yl]-3,4,5,6-tetrahydro-2H-[1,2]bipyridinyl-4-ol hydrochloride]?
A: Ki (5-HT1D): 1840 nM; Ki (5-HT2C): > 8360 nM; Kb (5-HT7 receptor; antagonist potency, cAMP formation in 5-HT7 receptor-expressing AV-12 cells): ~2.97 nM; antagonist character (5-HT7 receptor; cAMP formation in 5-HT7 receptor-expressing AV-12 cells): full antagonist; inhibition (5-HT7 receptor; percent inhibition of cAMP formation in 5-HT7 receptor-expressing AV-12 cells): about 108%

Source: patent US7910588B2, “5-HT7 receptor antagonists” (Eli Lilly and Company, priority 2007, dated 2011)
